Assay results taken from patent publication US12497614B2, “Compositions and methods for editing beta-globin for treatment of hemaglobinopathies” (Vertex Pharmaceuticals Incorporated, priority 2020, dated 2025).
Strand notation (5' to 3'): a small letter for the sugar, then the base; units joined by * are phosphorothioate-linked, units joined directly phosphodiester-linked; [ ] holds rarer units or linkages, { } end groups; capitals alone tell only the bases. m = 2'-O-methyl; r = 2'-OH (RNA)

Assays:
[1] = test system: HBB gene locus in CD34+ HSPCs; assay: HDR efficiency with DNA-PK inhibitors for editing the HBB gene in CD34+ HSPCs; NGS (Example 4); type: cell-based, human; settings: for % HDR / % INDELs: 48 hours
Procedure: The cells were transduced with AAV donor template for 1 hour at 37° C. prior to electroporation. AAV-encoded homology donor template referred to as “AAV.310”, which is identified by sequence in Table 8. The AAV.310 donor template encodes a SCD mutation, specifically valine at the 6th codon downstream the HBB start codon (E6V). The cells were treated with AAV at a dose of 10,000 MOI.
Edited cells were evaluated for viability using trypan blue, and for incorporation of gene-edits at 2 days post-electroporation. The efficiency of HDR repair for introducing an E6V mutation in the HBB gene was quantified by NGS assay as described in Example 1, and the frequency of INDELs induced at the T107 cut site was also evaluated by NGS analysis.
The INDELs species identified in edited cells were further evaluated to determine frequency of repair by NHEJ or MMEJ repair pathways. An INDEL of ±1 nt was considered due to NHEJ repair; a deletion of −9 nt was considered due to MMEJ repair based on the microhomology present on either side of the T107 cut site. Based on percentage of total reads corresponding to these INDEL species, the ratio of gene edits due to NHEJ and MMEJ repair was evaluated. […] Thus, reduced frequency of INDELs with treatment of compound 296 or i53 is largely due to suppression of the NHEJ repair pathway.

[2] = test system: CD34+ HSPCs; assay: Cell growth and viability (trypan blue) of edited CD34+ HSPCs during differentiation (Example 5); settings: day 0 to day 18 post-editing; inhibitor 1 or 3 μM, i53 1 μg mRNA; data not shown
Procedure: Briefly, frozen CD34+ HSPCs isolated from Plerixafor mobilized peripheral blood, obtained from healthy human donors were thawed. The cells were seeded in CD34 cell media at a cell density of 2×10^5 cells/mL. Cells were cultured at 37° C. under normoxic conditions (i.e., oxygen 20%). Gene-editing was performed following two days of in vitro culture. For editing, 5×10^5 CD34+ HSPCs were electroporated with RNP containing 200 μg/ml Cas9 and 200 μg/ml T107 sgRNA. […] The cells were transduced with AAV.310, 1 hour prior to electroporation, at a dose of 10,000 MOI. The cells were plated in CD34 cell medium containing Compound 296 or Compound 984 immediately following the electroporation, at a concentration of 1 μM or 3 μM for 48 hours. […] Post electroporation cells were resuspended in CD34 cell medium at a density of 2-5×10^5 cells/ml and incubated at 37° C. for 48 hours.
Following editing, cells were differentiated to erythrocytes. Briefly, cells were plated in fresh CD34 media at a density of 2×10^5 cells/mL, and re-plated at similar density in fresh CD34 media on days 3 and 5 post-editing. On day 7 and 10 post-editing, the cells were incubated in Phase II media at a density of 2.5×10^5 and 1×10^6 cells/mL respectively. On day 12 post-editing, the cells were incubated in Phase III media at a density of 1×10^6 cells/mL. On day 14 cells were plated at a density of 2×10^6 cells/ml in Phase III media and maintained till day 18 at 37° C. Cell growth was measured at various time points between day 0 and day 18 post-editing, and the percentage of viable cells was measured by staining with tryphan blue.

[3] = test system: HBB gene locus and mRNA transcribed from HBB in CD34+ HSPCs; assay: Editing efficiency in genomic DNA and in HBB mRNA (Example 5); type: cell-based, human; settings: genomic DNA, 48 hours post electroporation; 1 μM or 3 μM
Procedure: At 48 hours post electroporation genomic DNA was isolated from the edited cells and HDR to introduce the sickle mutation and INDEL frequencies were evaluated using next gene sequencing and computational analysis. On day 10 of differentiation, incorporation of the SCD mutation and frequency of INDELs present in mRNA transcribed from the HBB gene locus of edited cells was determined using RNA amplicon sequencing.

[4] = test system: CD34+ HSPCs; assay: Globin and hemoglobin analysis by HPLC on day 18 of differentiation (Example 5); type: cell-based, human; settings: T107 RNP+AAV.310 alone or combined with the inhibitor
Procedure: (§1) Following editing, cells were differentiated to erythrocytes.
Additionally, on day 18 post-editing, expression of globin monomers was assessed in differentiated cells by HPLC as described in Example 3. […] Accordingly, the editing was sufficient to both introduce the SCD mutation in HBB and result in expression of sickle globin.
Furthermore, production of hemoglobin tetramers was also evaluated by HPLC. The analysis included quantification of HbS tetramer containing sickle-globin (α2β(E6V)2), HbF tetramer (α2γ2), HbA (α2β2), and HbA2 (α2δ2) produced by edited cells. […] Thus, the editing was also sufficient to alter hemoglobin output following in vitro differentiation.

[5] = test system: CD34+ HSPCs; assay: Erythrocyte functionality: enucleation and cell-surface markers by flow cytometry (Example 5); type: cell-based, human; settings: T107 RNP+AAV.310 alone or combined with the inhibitor
Procedure: as §1
The ability of edited cells to differentiate to functional erythrocytes was assessed by determining expression of erythrocyte-associated cell surface markers and enucleation using flow cytometry on day 12 and 18 post editing. Briefly, 4×10^5 cells were obtained, and half were stained for erythrocyte cell-surface markers and half were used for detection of enucleation. For staining cell-surface markers, the cells were incubated in PBS containing 1% human serum albumin (PBS-A) and an antibody cocktail of anti-CD233(BRIC6-Band3)-FITC, anti-CD71-PE, anti-CD235a(GlyA)-PE/Cy7, and anti-CD49d (α4)-VioBlue. For detection of enucleation, 2 drops of NucRed nuclear staining reagent was added to 1 mL PBS-A, and 100 μL was added to plated cells. Following incubation, both cell samples were labeled with Sytox Blue solution (1:1000 dilution in PBS-A) for live/dead analysis. Samples were then assessed by flow cytometry

[6] = test system: genomic sites undergoing off-target cleavage; assay: GUIDE-Seq screen of candidate off-target sites; type: cell-based, human
Description: The second approach was to screen candidate off-target sites using GUIDE-Seq (see, e.g., Tsai et al (2015) NAT. BIOTECHNOL. 33:187). Based on this approach, the following number of genomic sites were identified as undergoing off-target cleavage per each gRNA: • (i) 36 GUIDE-Seq off-target sites for R02 gRNA; • (ii) 12 GUIDE-Seq off-target sites for […]; and • (iii) 43 GUIDE-Seq off-target sites for T223 gRNA.

[7] = test system: HBB gene in CD34+ HSPCs; assay: Comparison of guides targeting intron 1 of HBB with AAV donor templates (Example 8); type: cell-based, human; settings: with each of AAV.309, AAV.310, AAV.311; day 2 post-editing
Procedure: Healthy donor CD34+ HSPCs derived from plerixafor-mobilized peripheral blood were cultured as described in Example 1 for two days prior to editing. Editing was performed using 1×10^6 CD34+ HSPCs per treatment group. The cells were electroporated with RNP containing the following 20 μg SpCas9 and 20 μg T107 sgRNA, 20 μg T223 sgRNA, or 20 μg R02 sgRNA. […] The cells were transduced with AAV6 donor templates encoding a SCD mutation (AAV.309; AAV.310; AAV.311) by incubating the cells with AAV at a dose of 10,000 MOI for one hour prior to electroporation. Control cells were transduced with AAV only and electroporated in the absence of RNP.
On day 2 post-editing, the efficiency of HDR repair for inducing a SCD mutation in the HBB gene was quantified by NGS assay as described in Example 1.

[8] = T107 RNP + AAV.310 + 0.012 μM compound
[9] = T107 RNP + AAV.310 + 0.037 μM compound
[10] = T107 RNP + AAV.310 + 0.04 μM compound
[11] = T107 RNP + AAV.310 + 3.3 μM compound
[12] = T107 RNP + AAV.310 + 10 μM compound

Which results are given for `CNC(=O)c1ccnc2c([C@H](C)CNc3cc(-c4cnc(C)nc4)ncn3)cccc12` [Compound 296]?
% HDR [1, 8]: 40%; % INDELs [1, 8]: 45%; % HDR [1, 9]: 39%; % INDELs [1, 9]: 46%; % HDR [1, 10]: 40%; % INDELs [1, 10]: 42%; % HDR [1, 11]: 55%; % INDELs [1, 11]: 27%; % HDR [1, 12]: 57%; % INDELs [1, 12]: 25%; reduction of the frequency of INDELs at the T107 cut site compared to control cells ([1]; T107 RNP+AAV.310 with DNA-PK inhibitor): approximately 1.6 fold; INDEL species due to MMEJ repair (deletion of −9 nt) ([1]; T107 RNP+AAV.310, Compound 296 at 10 μM, i53 at 1 μg mRNA): no substantial reduction; decrease in INDELs due to NHEJ repair (INDEL of ±1 nt) ([1]; T107 RNP+AAV.310, Compound 296 at 10 μM, i53 at 1 μg mRNA, vs DMSO): ≤ 3 fold; cell growth over time or percent viability vs T107 RNP+AAV.310 edited cells [2]: No difference; frequency of INDELs at the T107 cut site compared to cells edited with T107 RNP+AAV.310 only [3]: decreased; level of HDR repair compared to cells edited with T107 RNP+AAV.310 only [3]: increased; HbA production compared to control cells [4]: decreased; HbS production compared to control cells [4]: increased; expression of sickle-globin compared to control cells [4]: increased; levels of enucleation vs control cells [5]: comparable

B1: R02 gRNA: exon-targeting gRNA for exon 1 of HBB, spacer SEQ ID NO: 14, sgRNA SEQ ID NO: 15 (nucleic acid)
guide: mC*mU*mU*rGrCrCrCrCrArCrArGrGrGrCrArGrUrArArGrUrUrUrUrArGrArGrCrUrArGrArArArUrArGrCrArArGrUrUrArArArArUrArArGrGrCrUrArGrUrCrCrGrUrUrArUrCrArArCrUrUrGrArArArArArGrUrGrGrCrArCrCrGrArGrUrCrGrGrUrGrCmU*mU*mU*rU
With B1 as the molecule, how does the “GUIDE-Seq off-target sites (number)” value [6] read?
The value was 36.

B2: T107 gRNA: intron-targeting gRNA, spacer SEQ ID NO: 3, sgRNA SEQ ID NO: 4 (nucleic acid)
guide: mU*mC*mC*rArCrArUrGrCrCrCrArGrUrUrUrCrUrArUrGrUrUrUrUrArGrArGrCrUrArGrArArArUrArGrCrArArGrUrUrArArArArUrArArGrGrCrUrArGrUrCrCrGrUrUrArUrCrArArCrUrUrGrArArArArArGrUrGrGrCrArCrCrGrArGrUrCrGrGrUrGrCmU*mU*mU*rU
B2 was tested. Which “levels of HDR for introducing the SCD mutation” value [7] did it give?
The value was “similar”.

And the “GUIDE-Seq off-target sites (number)” value [6]?
The value was 12.

B3: T223 gRNA: intron-targeting gRNA, spacer SEQ ID NO: 51, sgRNA SEQ ID NO: 52 (nucleic acid)
guide: mU*mA*mA*rGrGrArGrArCrCrArArUrArGrArArArCrUrGrUrUrUrUrArGrArGrCrUrArGrArArArUrArGrCrArArGrUrUrArArArArUrArArGrGrCrUrArGrUrCrCrGrUrUrArUrCrArArCrUrUrGrArArArArArGrUrGrGrCrArCrCrGrArGrUrCrGrGrUrGrCmU*mU*mU*rU
How did the “levels of HDR for introducing the SCD mutation” value [7] turn out when B3 was run?
Its value is “similar”.

And the “GUIDE-Seq off-target sites (number)” value [6]?
The value was 43.
